The record followed here is patent US4450269A, “Mono-5-substituted-3-chloro-4H-1,2,6-thiadiazin-4-one antifungal agents” (FMC Corporation, priority 1980, dated 1984).

The test system of this assay is Helminthosporium oryzae. The assay can be described thus: Mycelial growth test. Particulars: Bipolaris oryzae, 72 h.
[1] abbreviates: read-out: Percent Fungus Growth Inhibition, HO, 5 ppm, 72 hours.
Setting [2] is: read-out: Percent Fungus Growth Inhibition, HO, 10 ppm, 72 hours.
[3] abbreviates: read-out: Percent Fungus Growth Inhibition, HO, 20 ppm, 72 hours.
Where [4] appears, read: read-out: Percent Fungus Growth Inhibition, HO, 40 ppm, 72 hours.
[5] abbreviates: read-out: Percent Fungus Growth Inhibition.

Each structure is given as a SMILES string. Read-outs that look alike come from different tables or passages of the source.

Procedure: HO = Helminthosporium oryzae
Aliquots of previously prepared solutions of active ingredient in acetone were added to tubes containing 20 ml of sterile, melted potato dextrose agar that had been cooled to 50° C. to provide mixtures of 40, 20, 10, 5 and 2.5 ppm. The tubes were shaken to ensure thorough mixing of the chemical with the agar, and the mixture poured into petri dishes having 4 quadrants to solidify. Each quadrant was inoculated with a 4 mm diameter disc of agar containing mycelium of the test fungi and incubated at 25° C. for 72 hours during which the samples were alternately exposed to light for 12 hours and to darkness for 12 hours. Growth was measured at the end of the incubation period by measuring the diameter of each fungus colony. Two measurements of the diameter, perpendicular to each other, were taken and the values averaged. Data are reported as percent inhibition (%I) by the following formula: [formula] Captan and chlorothalonil were used as standards for comparison.

Regarding `O=c1c(Cl)nsnc1Oc1ccccc1Br` [Compound 34, 3-chloro-5-(2-bromophenoxy)-4H-1,2,6,-thiadiazin-4-one], the inhibition at 5 ppm under setting [1] is 74%. The inhibition at 10 ppm under setting [2] was found to be 74%. Under setting [3], the inhibition at 20 ppm came to 100%. Further, under setting [4], the inhibition at 40 ppm stood at 100%.

In the case of `O=C(Nc1ccccc1)Oc1ccc(Oc2nsnc(Cl)c2=O)cc1` [Compound 37, 3-chloro-5-[4-(phenylaminocarbonyloxy)phenoxy]-4H-1,2,6,-thiadiazin-4-one], under setting [5], the inhibition at 5 ppm was 27%, the inhibition at 10 ppm came to 13%, the inhibition at 20 ppm is 60% and the inhibition at 40 ppm was found to be 47%.

As to `O=C(OCc1ccccc1)Oc1ccc(Oc2nsnc(Cl)c2=O)cc1` [Compound 38, 3-chloro-5-[4-(phenylmethoxycarbonyloxy)phenoxyl]-4H-1,2,6-thiadiazin-4-one], the inhibition at 5 ppm under setting [1] was 56%. Also, the inhibition at 10 ppm under setting [2] is 39%. The inhibition at 20 ppm under setting [3] was determined as 89%. For the same compound, the inhibition at 40 ppm under setting [4] came to 100%.

Regarding `CSc1ccc(Oc2nsnc(Cl)c2=O)cc1` [Compound 39, 3-chloro-5-[(4-methylthio)phenoxy]-4H-1,2,6,-thiadiazin-4-one], under setting [1], the inhibition at 5 ppm was 73%. The inhibition at 10 ppm under setting [2] was found to be 87%. Moreover, the inhibition at 20 ppm under setting [3] is 100%. Further, the inhibition at 40 ppm under setting [4] is 80%.

Take `C[S+]([O-])c1ccc(Oc2nsnc(Cl)c2=O)cc1` (stereo not shown) [Compound 40, 3-chloro-5-[(4-methylsulfinyl)phenoxy]-4H-1,2,6,-thiadiazin-4-one]: the inhibition at 5 ppm under setting [1] amounted to 40%. Further, the inhibition at 10 ppm under setting [2] turned out to be 60%. Moreover, the inhibition at 20 ppm under setting [3] was determined as 87%. The inhibition at 40 ppm under setting [4] turned out to be 100%.

Consider `CC(=O)Nc1cccc(Oc2nsnc(Cl)c2=O)c1` [Compound 42, 3-[(3-N--acetylamino)-phenoxy]-5-chloro-4H--1,2,6-thiadiazin-4-one], for which the inhibition at 5 ppm under setting [1] was determined as 23%. For the same compound, under setting [2], the inhibition at 10 ppm worked out at 38%. The inhibition at 20 ppm under setting [3] is 100%. Besides, under setting [4], the inhibition at 40 ppm amounted to 100%.

Take `CC(=O)Nc1ccccc1Oc1nsnc(Cl)c1=O` [Compound 43, 3-[(2-acetylamino)-phenoxy]-5-chloro-4H--1,2,6-thiadiazin-4-one]: under setting [1], the inhibition at 5 ppm worked out at 61%. The inhibition at 10 ppm under setting [2] came out at 70%. Further, the inhibition at 20 ppm under setting [3] was determined as 65%. Besides, the inhibition at 40 ppm under setting [4] was found to be 91%.

In the case of `O=c1c(Cl)nsnc1Oc1cccc(C(F)(F)F)c1` [Compound 44, 3-chloro-5-[(3-trifluoromethyl)phenoxy]-4H--1,2,6-thiadiazin-4-one], the inhibition at 5 ppm under setting [1] is 100%. Moreover, under setting [2], the inhibition at 10 ppm was 100%. The inhibition at 20 ppm under setting [3] stood at 100%. The inhibition at 40 ppm under setting [4] amounted to 100%.

For `O=C(O)Cc1ccccc1Oc1nsnc(Cl)c1=O` [Compound 45, 3-(2-carboxymethylphenoxy)-5-chloro-4H--1,2,6-thiadiazin-4-one], the inhibition at 5 ppm under setting [1] worked out at 0%. The inhibition at 10 ppm under setting [2] was 0%. Also, the inhibition at 20 ppm under setting [3] came out at 63%. For the same compound, the inhibition at 40 ppm under setting [4] was 100%.

Consider `N#CCc1ccc(Oc2nsnc(Cl)c2=O)cc1` [Compound 46, 3-chloro-5-[(4-cyanomethyl)-phenoxy]4H--1,2,6-thiadiazin-4-one], for which the inhibition at 5 ppm under setting [1] worked out at 67%. Also, the inhibition at 10 ppm under setting [2] came to 89%. Further, the inhibition at 20 ppm under setting [3] was 100%. Moreover, the inhibition at 40 ppm under setting [4] amounted to 100%.

For the compound `CC(=O)c1ccc(Oc2nsnc(Cl)c2=O)cc1` [Compound 47, 3-(4-acetylphenoxy)-5-chloro-4H--1,2,6-thiadiazin-4-one], under setting [1], the inhibition at 5 ppm worked out at 75%. For the same compound, the inhibition at 10 ppm under setting [2] was 88%. The inhibition at 20 ppm under setting [3] amounted to 100%. Moreover, the inhibition at 40 ppm under setting [4] was found to be 100%.

In the case of `CC(=O)c1cccc(Oc2nsnc(Cl)c2=O)c1` [Compound 48, 3-(3-acetylphenoxy)-5-chloro-4H--1,2,6-thiadiazin-4-one], the inhibition at 5 ppm under setting [1] was 100%. Besides, the inhibition at 10 ppm under setting [2] is 63%. In addition, the inhibition at 20 ppm under setting [3] was 100%. In addition, the inhibition at 40 ppm under setting [4] was 100%.

In the case of `CC(=O)c1ccccc1Oc1nsnc(Cl)c1=O` [Compound 49, 3-(2-acetylphenoxy)-5-chloro-4H--1,2,6-thiadiazin-4-one], the inhibition at 5 ppm under setting [1] amounted to 74%. For the same compound, under setting [2], the inhibition at 10 ppm worked out at 100%. Besides, under setting [3], the inhibition at 20 ppm stood at 100%. Also, the inhibition at 40 ppm under setting [4] came out at 100%.

As for `O=C(O)c1ccc(Oc2nsnc(Cl)c2=O)cc1` [Compound 50, 3-(4-carboxyphenoxy)-5-chloro-4H--1,2,6-thiadiazin-4-one], the inhibition at 5 ppm under setting [1] was 75%. Also, the inhibition at 10 ppm under setting [2] came to 38%. Further, the inhibition at 20 ppm under setting [3] came out at 100%. Further, the inhibition at 40 ppm under setting [4] came out at 100%.

Take `COc1ccc(Cl)c(Oc2nsnc(Cl)c2=O)c1` [Compound 51, 3-chloro-5-[(2-chloro-5-methoxy)phenoxy]-4H--1,2,6-thiadiazin-4-one]: the inhibition at 5 ppm under setting [1] was 78%. In addition, under setting [2], the inhibition at 10 ppm was 100%. Further, the inhibition at 20 ppm under setting [3] is 100%. For the same compound, the inhibition at 40 ppm under setting [4] stood at 100%.

`COc1cc(Cl)cc(Oc2nsnc(Cl)c2=O)c1` [Compound 52, 3-chloro-5-[(3-chloro-5-methoxy)phenoxy]-4H--1,2,6-thiadiazin-4-one]: the inhibition at 5 ppm under setting [1] stood at 100%. Also, under setting [2], the inhibition at 10 ppm stood at 89%. Besides, the inhibition at 20 ppm under setting [3] is 100%. The inhibition at 40 ppm under setting [4] turned out to be 100%.

With `O=c1c(Cl)nsnc1Oc1ccc([N+](=O)[O-])cc1Cl` [Compound 53, 3-chloro-5-(2-chloro-4-nitrophenoxy)-4H--1,2,6-thiadiazin-4-one], the inhibition at 5 ppm under setting [1] came out at 27%. Moreover, under setting [2], the inhibition at 10 ppm turned out to be 100%. Also, the inhibition at 20 ppm under setting [3] is 100%. The inhibition at 40 ppm under setting [4] turned out to be 100%.

For the compound `Cc1cc(Oc2nsnc(Cl)c2=O)ccc1Cl` [Compound 54, 3-chloro-5-(4-chloro-3-methylphenoxy)-4H--1,2,6-thiadiazin-4-one], the inhibition at 5 ppm under setting [1] came to 43%. Moreover, the inhibition at 10 ppm under setting [2] was determined as 91%. Moreover, under setting [3], the inhibition at 20 ppm worked out at 73%. Further, under setting [4], the inhibition at 40 ppm came to 100%.

As for `Cc1cc(Cl)ccc1Oc1nsnc(Cl)c1=O` [Compound 55, 3-chloro-5-(4-chloro-2-methylphenoxy)-4H--1,2,6-thiadiazin-4-one], the inhibition at 5 ppm under setting [1] was found to be 100%. Under setting [2], the inhibition at 10 ppm was 100%. Moreover, the inhibition at 20 ppm under setting [3] amounted to 91%. Besides, the inhibition at 40 ppm under setting [4] amounted to 100%.

For `Cc1ccc(Cl)c(Oc2nsnc(Cl)c2=O)c1` [Compound 56, 3-chloro-5-[(2-chloro-5-methyl)phenoxy]-4H--1,2,6-thiadiazin-4-one], the inhibition at 5 ppm under setting [1] came out at 67%. For the same compound, under setting [2], the inhibition at 10 ppm is 100%. Further, under setting [3], the inhibition at 20 ppm was 100%. The inhibition at 40 ppm under setting [4] came to 100%.

Turning to `Cc1ccc(Oc2nsnc(Cl)c2=O)c(Br)c1` [Compound 57, 3-[(2-bromo-4-methyl)-phenoxy]-5-chloro-4H--1,2,6-thiadiazin-4-one], the inhibition at 5 ppm under setting [1] is 100%. Also, the inhibition at 10 ppm under setting [2] worked out at 100%. For the same compound, the inhibition at 20 ppm under setting [3] was 100%. Further, the inhibition at 40 ppm under setting [4] is 100%.

Take `Cc1cc(Cl)c(Oc2nsnc(Cl)c2=O)cc1C` [Compound 58, 3-chloro-5-[(2-chloro-4,5-dimethyl)phenoxy]-4H--1,2,6-thiadiazin-4-one]: the inhibition at 5 ppm under setting [1] came to 54%. The inhibition at 10 ppm under setting [2] is 54%. Besides, under setting [3], the inhibition at 20 ppm was determined as 69%. In addition, under setting [4], the inhibition at 40 ppm was found to be 69%.

As to `Cc1cc(Oc2nsnc(Cl)c2=O)cc(C)c1Cl` [Compound 59, 3-chloro-5-[(4-chloro-3,5-dimethyl)phenoxy]-4H--1,2,6-thiadiazin-4-one], under setting [1], the inhibition at 5 ppm was determined as 100%. Further, the inhibition at 10 ppm under setting [2] was determined as 100%. Further, under setting [3], the inhibition at 20 ppm worked out at 100%. For the same compound, the inhibition at 40 ppm under setting [4] is 100%.

Take `Cc1cc(Oc2nsnc(Cl)c2=O)cc(C)c1Br` [Compound 60, 3-[(4-bromo-3,5-dimethyl)-phenoxy]-5-chloro-4H--1,2,6-thiadiazin-4-one]: the inhibition at 5 ppm under setting [1] is 100%. Moreover, the inhibition at 10 ppm under setting [2] was determined as 77%. The inhibition at 20 ppm under setting [3] came out at 69%. Besides, under setting [4], the inhibition at 40 ppm was 100%.

For the compound `COc1cc(Oc2nsnc(Cl)c2=O)cc(OC)c1C(C)=O` [Compound 61, 3-[(4-acetyl-3,5-dimethoxy)-phenoxy]-5-chloro-4H--1,2,6-thiadiazin-4-one], the inhibition at 5 ppm under setting [1] was 13%. Further, under setting [2], the inhibition at 10 ppm came to 33%. For the same compound, the inhibition at 20 ppm under setting [3] amounted to 100%. Also, under setting [4], the inhibition at 40 ppm turned out to be 100%.
